# Data as given in ChEMBL document CHEMBL1141575, “Preparation and in vitro biological evaluation of tetrapyrrole ethanolamide derivatives as potential anticancer agents” (Bioorg Med Chem Lett, 2008).
# pIC50: −log10 of the molar value.
# Experiments:
# HeLa [1] = assay: Survival of human HeLa cells at 100 uM under deem light after 96 hrs by MTT assay relative to control; assay type: functional; details: read-out: Survival
# Raji [2] = assay: Survival of human Raji cells at 10 uM under deem light after 96 hrs by MTT assay relative to control; assay type: functional; details: read-out: Survival
# NCI-H69 [3] = assay: Cytotoxicity against human H69 cells under deem light after 96 hrs by MTT assay; assay type: functional, cell-based; details: NCI-H69, 96 h
# SiHa [4] = assay: Survival of human SIHA cells at 1 uM under deem light after 96 hrs by MTT assay relative to control; assay type: functional; details: read-out: Survival
# NCI-H69 [5] = assay: Survival of human H69 cells at 1 uM under deem light after 96 hrs by MTT assay relative to control; assay type: functional; details: NCI-H69, 96 h, read-out: Survival
# K562 [6] = assay: Cytotoxicity against human K562 cells under deem light after 96 hrs by MTT assay; assay type: functional, cell-based; details: K562, 96 h
# K562 [7] = assay: Survival of human K562 cells at 0.1 uM under deem light after 96 hrs by MTT assay relative to control; assay type: functional; details: K562, 96 h, read-out: Survival
# HeLa [8] = assay: Survival of human HeLa cells at 0.1 uM under deem light after 96 hrs by MTT assay relative to control; assay type: functional; details: read-out: Survival
# HeLa [9] = assay: Cytotoxicity against human HeLa cells under deem light after 96 hrs by MTT assay; assay type: functional, cell-based
# [10] = Survival of human MDA-MB cells at 50 uM under deem light after 96 hrs by MTT assay relative to control; assay type: functional; details: read-out: Survival
# [11] = Survival of human 2780.9S cells at 50 uM under deem light after 96 hrs by MTT assay relative to control; assay type: functional; details: read-out: Survival
# Raji [12] = assay: Survival of human Raji cells at 1 uM under deem light after 96 hrs by MTT assay relative to control; assay type: functional; details: read-out: Survival
# [13] = Survival of human H209 cells at 0.1 uM under deem light after 96 hrs by MTT assay relative to control; assay type: functional; details: NCI-H209, 96 h, read-out: Survival
# Raji [14] = assay: Cytotoxicity against human Raji cells under deem light after 96 hrs by MTT assay; assay type: functional, cell-based
# [15] = Photohemolysis in human RBC assessed as concentration required to 50% hemolysis under light exposure for 5 mins; assay type: ADME, cell-based, Erythrocyte; details: human red blood cells, read-out: Activity
# Daudi = assay: Cytotoxicity against human Daudi cells under deem light after 96 hrs by MTT assay; assay type: functional, cell-based
# NCI-H69 [16] = assay: Survival of human H69 cells at 50 uM under deem light after 96 hrs by MTT assay relative to control; assay type: functional; details: NCI-H69, 96 h, read-out: Survival
# [17] = Survival of human 2780.9S cells at 0.1 uM under deem light after 96 hrs by MTT assay relative to control; assay type: functional; details: read-out: Survival
# SiHa [18] = assay: Survival of human SIHA cells at 50 uM under deem light after 96 hrs by MTT assay relative to control; assay type: functional; details: read-out: Survival
# [19] = Photohemolysis in human RBC at 190 nM under exposure to light for 10 mins; assay type: ADME, cell-based, Erythrocyte; details: human red blood cells, read-out: Activity
# [20] = Survival of human H209 cells at 10 uM under deem light after 96 hrs by MTT assay relative to control; assay type: functional; details: NCI-H209, 96 h, read-out: Survival
# NCI-H69 [21] = assay: Survival of human H69 cells at 10 uM under deem light after 96 hrs by MTT assay relative to control; assay type: functional; details: NCI-H69, 96 h, read-out: Survival
# [22] = Survival of human 2780.9S cells at 10 uM under deem light after 96 hrs by MTT assay relative to control; assay type: functional; details: read-out: Survival
# NCI-H69 [23] = assay: Survival of human H69 cells at 100 uM under deem light after 96 hrs by MTT assay relative to control; assay type: functional; details: NCI-H69, 96 h, read-out: Survival
# K562 [24] = assay: Survival of human K562 cells at 100 uM under deem light after 96 hrs by MTT assay relative to control; assay type: functional; details: K562, 96 h, read-out: Survival
# K562 [25] = assay: Survival of human K562 cells at 1 uM under deem light after 96 hrs by MTT assay relative to control; assay type: functional; details: K562, 96 h, read-out: Survival
# [26] = Survival of human MDA-MB cells at 10 uM under deem light after 96 hrs by MTT assay relative to control; assay type: functional; details: read-out: Survival
# Raji [27] = assay: Survival of human Raji cells at 0.1 uM under deem light after 96 hrs by MTT assay relative to control; assay type: functional; details: read-out: Survival
# Raji [28] = assay: Survival of human Raji cells at 50 uM under deem light after 96 hrs by MTT assay relative to control; assay type: functional; details: read-out: Survival
# SiHa [29] = assay: Survival of human SIHA cells at 10 uM under deem light after 96 hrs by MTT assay relative to control; assay type: functional; details: read-out: Survival
# [30] = Survival of human H209 cells at 100 uM under deem light after 96 hrs by MTT assay relative to control; assay type: functional; details: NCI-H209, 96 h, read-out: Survival
# [31] = Survival of human H209 cells at 1 uM under deem light after 96 hrs by MTT assay relative to control; assay type: functional; details: NCI-H209, 96 h, read-out: Survival
# [32] = Survival of human MDA-MB cells at 0.1 uM under deem light after 96 hrs by MTT assay relative to control; assay type: functional; details: read-out: Survival
# NCI-H69 [33] = assay: Survival of human H69 cells at 0.1 uM under deem light after 96 hrs by MTT assay relative to control; assay type: functional; details: NCI-H69, 96 h, read-out: Survival
# [34] = Survival of human 2780.9S cells at 1 uM under deem light after 96 hrs by MTT assay relative to control; assay type: functional; details: read-out: Survival
# SiHa [35] = assay: Survival of human SIHA cells at 100 uM under deem light after 96 hrs by MTT assay relative to control; assay type: functional; details: read-out: Survival
# HeLa [36] = assay: Survival of human HeLa cells at 50 uM under deem light after 96 hrs by MTT assay relative to control; assay type: functional; details: read-out: Survival
# [37] = Survival of human H209 cells at 50 uM under deem light after 96 hrs by MTT assay relative to control; assay type: functional; details: NCI-H209, 96 h, read-out: Survival
# [38] = Cytotoxicity against human 2780.9S cells under deem light after 96 hrs by MTT assay; assay type: functional, cell-based
# HeLa [39] = assay: Survival of human HeLa cells at 10 uM under deem light after 96 hrs by MTT assay relative to control; assay type: functional; details: read-out: Survival
# [40] = Photohemolysis in human RBC at 250 nM in absence of light; assay type: ADME, cell-based, Erythrocyte; details: human red blood cells, read-out: Activity
# [41] = Survival of human MDA-MB cells at 1 uM under deem light after 96 hrs by MTT assay relative to control; assay type: functional; details: read-out: Survival
# [42] = Survival of human 2780.9S cells at 100 uM under deem light after 96 hrs by MTT assay relative to control; assay type: functional; details: read-out: Survival
# HeLa [43] = assay: Survival of human HeLa cells at 1 uM under deem light after 96 hrs by MTT assay relative to control; assay type: functional; details: read-out: Survival
# [44] = Photohemolysis in human RBC assessed as concentration required to 50% hemolysis under light exposure for 10 mins; assay type: ADME, cell-based, Erythrocyte; details: human red blood cells, read-out: Activity
# Raji [45] = assay: Survival of human Raji cells at 100 uM under deem light after 96 hrs by MTT assay relative to control; assay type: functional; details: read-out: Survival
# [46] = Survival of human MDA-MB cells at 100 uM under deem light after 96 hrs by MTT assay relative to control; assay type: functional; details: read-out: Survival
# SiHa [47] = assay: Cytotoxicity against human SIHA cells under deem light after 96 hrs by MTT assay; assay type: functional, cell-based
# K562 [48] = assay: Survival of human K562 cells at 50 uM under deem light after 96 hrs by MTT assay relative to control; assay type: functional; details: K562, 96 h, read-out: Survival
# [49] = Cytotoxicity against human MDA-MB cells under deem light after 96 hrs by MTT assay; assay type: functional, cell-based
# K562 [50] = assay: Survival of human K562 cells at 10 uM under deem light after 96 hrs by MTT assay relative to control; assay type: functional; details: K562, 96 h, read-out: Survival
smiles,measurement,setting,value
C=Cc1c(C)c2cc3nc(c(CC(=O)OC)c4[nH]c(cc5nc(cc1[nH]2)C(C)=C5CC)c(C)c4C(=O)NCCO)C(CCC(=O)OC)C3C (stereo unspecified) [PHEOPHORBIDE A ETHANOLAMIDE],viability at 100 µM,HeLa [1],7.8%
same,viability at 10 µM,Raji [2],121%
same,pIC50,NCI-H69 [3],4.26
same,viability at 1 µM,SiHa [4],97.8%
same,viability at 1 µM,NCI-H69 [5],101%
same,pIC50,K562 [6],4.46
same,viability at 0.1 µM,K562 [7],129%
same,viability at 0.1 µM,HeLa [8],126%
same,pIC50,HeLa [9],4.46
same,viability at 50 µM,[10],1.6%
same,viability at 50 µM,[11],1.7%
same,viability at 1 µM,Raji [12],119%
same,viability at 0.1 µM,[13],102%
same,pIC50,Raji [14],4.46
same,HC50 at 5 min,[15],80 nM
same,pIC50,Daudi,4.46
same,viability at 50 µM,NCI-H69 [16],58.7%
same,viability at 0.1 µM,[17],98.8%
same,viability at 50 µM,SiHa [18],1.2%
same,"hemolysis at 10 min, 0.19 µM",[19],100%
same,viability at 10 µM,[20],106%
same,viability at 10 µM,NCI-H69 [21],98.4%
same,viability at 10 µM,[22],99%
same,viability at 100 µM,NCI-H69 [23],14.4%
same,viability at 100 µM,K562 [24],2.9%
same,viability at 1 µM,K562 [25],113%
same,viability at 10 µM,[26],107%
same,viability at 0.1 µM,Raji [27],118%
same,viability at 50 µM,Raji [28],2.5%
same,viability at 10 µM,SiHa [29],99.9%
same,viability at 100 µM,[30],5.2%
same,viability at 1 µM,[31],102%
same,viability at 0.1 µM,[32],110%
same,viability at 0.1 µM,NCI-H69 [33],95.7%
same,viability at 1 µM,[34],117%
same,viability at 100 µM,SiHa [35],1.1%
same,viability at 50 µM,HeLa [36],6.3%
same,viability at 50 µM,[37],59.4%
same,pIC50,[38],4.46
same,viability at 10 µM,HeLa [39],113%
same,hemolysis at 0.25 µM,[40],17%
same,viability at 1 µM,[41],121%
same,viability at 100 µM,[42],1.7%
same,viability at 1 µM,HeLa [43],114%
same,HC50 at 10 min,[44],140 nM
same,viability at 100 µM,Raji [45],3.3%
same,viability at 100 µM,[46],1.6%
same,pIC50,SiHa [47],4.46
same,viability at 50 µM,K562 [48],6.1%
same,pIC50,[49],4.46
same,viability at 10 µM,K562 [50],115%
